Experimental data as given in the supplement of paper PMC5844555.

Tests used:
Assay in all cases: 3' UTR reporter interaction score (median-centred robust z-score of log2 firefly/Renilla activity); higher = less repression of the 3' UTR reporter
Conditions in all cases: HEK293T; 48 h
HRAS = system: HRAS
Outline: (§1)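 HEK293T cells (10,000/well, 96-well plates) were co-transfected using DharmaFECT Duo with 100 ng firefly luc2P reporter carrying the gene's 3' UTR, 20 ng Renilla pRL-TK control and 2.5 pmol miRNA mimic. Dual-luciferase activities were read 48 h post-transfection. The interaction score is the log-transformed firefly/Renilla ratio as a per-plate robust z-score (median, median absolute deviation), median-centred per miRNA and averaged over at least two independent screens; more negative indicates interaction.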

MYCN = system: MYCN
Outline: as §1

MYC = system: MYC
Outline: as §1

EZH2 = system: EZH2
Outline: as §1

NOTCH1 = system: NOTCH1
Outline: as §1

FBXW7 = system: FBXW7
Outline: as §1

MYT1L = system: MYT1L
Outline: as §1

PHOX2B = system: PHOX2B
Outline: as §1

TP53 = system: TP53
Outline: as §1

RB1 = system: RB1
Outline: as §1

ZEB2 = system: ZEB2
Outline: as §1

MYB = system: MYB
Outline: as §1

PHF6 = system: PHF6
Outline: as §1

BRCA2 = system: BRCA2
Outline: as §1

| Sequence | 3' UTR reporter interaction score (HRAS) | 3' UTR reporter interaction score (MYCN) | 3' UTR reporter interaction score (MYC) | 3' UTR reporter interaction score (EZH2) | 3' UTR reporter interaction score (NOTCH1) | 3' UTR reporter interaction score (FBXW7) | 3' UTR reporter interaction score (MYT1L) | 3' UTR reporter interaction score (PHOX2B) | 3' UTR reporter interaction score (TP53) | 3' UTR reporter interaction score (RB1) | 3' UTR reporter interaction score (ZEB2) | 3' UTR reporter interaction score (MYB) | 3' UTR reporter interaction score (PHF6) | 3' UTR reporter interaction score (BRCA2) |
| --- | --- | --- | --- | --- | --- | --- | --- | --- | --- | --- | --- | --- | --- | --- |
| GCACAUUACACGGUCGACCUCU | -0.25 | 0.192 | -0.285 | -0.1 | -0.223 | 0.52 | -0.0362 | -1.13 | -0.315 | -0.0189 | 1.19 | 0.761 | 0.116 | -0.107 |
| GCCCCUGGGCCUAUCCUAGAA | -0.133 | 0.221 | -0.282 | 0.389 | -0.931 | 0.0138 | -0.294 | -0.0536 | -0.179 | 0.411 | -0.237 | 0.244 | 2.01 | 0.566 |
| GCCUGCUGGGGUGGAACCUGG | -0.0157 | -0.962 | 0.0868 | -0.39 | -0.0223 | -0.733 | -0.443 | 0.0382 | -0.747 | 1.37 | 0.26 | 0.0969 | 0.254 | 0.403 |
| GCGACCCACUCUUGGUUUCCA | -0.85 | 0.0444 | -0.5 | 0.786 | 0.563 | 0.92 | -0.645 | 0.84 | 0.384 | -2.3 | -0.694 | 0.396 | -1.86 | -0.537 |
| GCGACCCAUACUUGGUUUCAG | -0.348 | 0.527 | -0.469 | 1.08 | 0.351 | 0.104 | -5.03e-17 | -1.24 | -0.0561 | -1.26 | -0.392 | 0.445 | -1.74 | 0.00941 |
| GCGAGGACCCCUCGGGGUCUGAC | 0.0816 | -0.654 | -0.466 | -0.18 | -0.131 | 0.437 | -0.47 | 0.436 | 0.0903 | 0.707 | -0.584 | 0.547 | -0.251 | 0.357 |
| GCGUGCGCCGGCCGGCCGCC | -0.392 | -1.25 | -1.82 | 0.589 | -0.272 | 0.516 | -0.142 | 0.436 | 0.961 | -0.23 | -0.647 | -0.399 | 1.71 | 0.432 |
| GCUAGUCCUGACUCAGCCAGU | -0.409 | 0.0989 | -0.713 | -0.186 | -0.242 | 0.368 | 0.167 | 0.384 | -0.219 | 0.4 | 0.364 | 0.624 | -0.0579 | 4.86e-17 |
| GCUGCGCUUGGAUUUCGUCCCC | -0.573 | 0.248 | 0.388 | -0.09 | 2.01 | -0.688 | 0.46 | -1.97 | -0.861 | 1.16 | 0.715 | 0.616 | 0.794 | -0.029 |
| GCUGGGCAGGGCUUCUGAGCUCCUU | -0.298 | 0.117 | -0.481 | -0.0238 | -0.244 | -0.37 | -0.4 | 1.06 | -0.0785 | 0.659 | 0.0169 | 0.00877 | 0.53 | -0.0026 |
